From patent US6342508B1, “N-hydroxy-2-(Alkyl,Aryl or Heteroaryl sulfanyl, sulfinyl or sulfonyl) 3-substituted alkyl, aryl or heteroarylamides as matrix metalloproteinase inhibitors” (American Cyanamid Company, priority 1997, dated 2002)

Key:
Format in all cases: biochemical
Settings in all cases: 1 micromolar
MMP 1 = target: T1, MMP 1 (Homo sapiens, UniProt P03956); test: In Vitro Collagenase Assay (human recombinant fibroblast collagenase, fluorogenic peptide substrate)
T1 construct: human recombinant fibroblast collagenase (truncated mw=18,828, WAR, Radnor)
T1 sequence (P03956 100-269 limits assumed): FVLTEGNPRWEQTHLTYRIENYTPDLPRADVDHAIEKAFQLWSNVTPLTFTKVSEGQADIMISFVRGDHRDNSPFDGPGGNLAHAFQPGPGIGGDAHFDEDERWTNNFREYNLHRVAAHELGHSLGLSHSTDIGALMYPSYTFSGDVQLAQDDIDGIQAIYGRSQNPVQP
Experimental: The assay is based on the cleavage of a peptide substrate ((Dnp-Pro-Cha-Gly-Cys(Me)-His-Ala-Lys(NMa)-NH2), Peptide International Inc.) by collagenase releasing the fluorescent NMa group which is quantitated on the fluorometer. Dnp quenches the NMa fluorescence in the intact substrate. […] Substrate is dissolved in methanol and stored frozen in 1 mM aliquots. […] For the assay, substrate is dissolved in HCBC buffer to a final concentration of 10 μM and collagenase to a final concentration of 5 nM. Compounds are dissolved in methanol, DMSO, or HCBC. The methanol and DMSO are diluted in HCBC to <1.0%. Compounds are added to the 96 well plate containing enzyme and the reaction is started by the addition of substrate.
The slope of the line is calculated and represents the reaction rate.
The mean (x±sem) of the control rate is calculated and compared for statistical significance (p<0.05) with drug-related rates using Dunnett's multiple comparison test.

MMP 9 = target: T2, MMP 9 (Homo sapiens, UniProt P14780); test: In Vitro Gelatinase Assay (human neutrophil gelatinase B, thiopeptide substrate/DTNB)
T2 construct: from tissue; host or cells: human neutrophils
Experimental: The assay is based on the cleavage of the thiopeptide substrate ((Ac-Pro-Leu-Gly(2 Mercapto-4 methyl-pentanoyl)-Leu-Gly-OEt), Bachem Bioscience) by the enzyme, gelatinase, releasing the substrate product which reacts colorimetrically with DTNB ((5,5′-dithio-bis(2-nitro-benzoic acid)). The enzyne activity is measured by the rate of the color increase. The thiopeptide substrate is made up fresh as a 20 mM stock in 100% DMSO and the DTNB is dissolved in 100% DMSO as a 100 mM stock and stored in dark at room temperature. Both the substrate and DTNB are diluted together to 1 mM with substrate buffer (50 mM HEPES pH 7.5, 5 mM CaCl2) before use.
The increase in OD405 is plotted and the slope of the line is calculated which represents the reaction rate.
The mean (x±sem) of the control rate is calculated and compared for statistical significance (p<0.05) with drug-treated rates using Dunnett's multiple comparison test.

MMP 13 = MMP 13 (Homo sapiens, UniProt P45452); test: MMP 13 inhibition (standard/manual test)
TACE = target: T3, TACE (Homo sapiens, UniProt P78536); test: Procedure for Measuring TACE Inhibition (fluorescent peptidyl substrate)
T3 construct: purchased Immunex
T3 sequence (P78536 215-824): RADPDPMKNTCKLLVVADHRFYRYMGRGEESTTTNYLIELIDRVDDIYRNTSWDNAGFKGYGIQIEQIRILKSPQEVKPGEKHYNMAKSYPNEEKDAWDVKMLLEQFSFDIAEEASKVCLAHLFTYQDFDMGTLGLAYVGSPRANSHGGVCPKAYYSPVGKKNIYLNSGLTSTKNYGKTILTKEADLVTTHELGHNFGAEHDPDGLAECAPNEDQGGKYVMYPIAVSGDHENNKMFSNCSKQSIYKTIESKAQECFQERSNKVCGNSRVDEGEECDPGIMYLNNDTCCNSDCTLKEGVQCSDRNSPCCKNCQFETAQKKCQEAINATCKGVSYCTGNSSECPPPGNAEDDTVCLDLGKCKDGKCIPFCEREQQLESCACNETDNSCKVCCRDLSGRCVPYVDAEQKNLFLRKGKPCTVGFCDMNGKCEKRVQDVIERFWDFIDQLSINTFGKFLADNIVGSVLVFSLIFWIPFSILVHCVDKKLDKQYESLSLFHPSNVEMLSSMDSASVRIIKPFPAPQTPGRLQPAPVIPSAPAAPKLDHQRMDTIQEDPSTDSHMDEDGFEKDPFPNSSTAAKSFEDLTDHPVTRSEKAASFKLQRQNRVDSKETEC

T2 sequence (P14780 94-707): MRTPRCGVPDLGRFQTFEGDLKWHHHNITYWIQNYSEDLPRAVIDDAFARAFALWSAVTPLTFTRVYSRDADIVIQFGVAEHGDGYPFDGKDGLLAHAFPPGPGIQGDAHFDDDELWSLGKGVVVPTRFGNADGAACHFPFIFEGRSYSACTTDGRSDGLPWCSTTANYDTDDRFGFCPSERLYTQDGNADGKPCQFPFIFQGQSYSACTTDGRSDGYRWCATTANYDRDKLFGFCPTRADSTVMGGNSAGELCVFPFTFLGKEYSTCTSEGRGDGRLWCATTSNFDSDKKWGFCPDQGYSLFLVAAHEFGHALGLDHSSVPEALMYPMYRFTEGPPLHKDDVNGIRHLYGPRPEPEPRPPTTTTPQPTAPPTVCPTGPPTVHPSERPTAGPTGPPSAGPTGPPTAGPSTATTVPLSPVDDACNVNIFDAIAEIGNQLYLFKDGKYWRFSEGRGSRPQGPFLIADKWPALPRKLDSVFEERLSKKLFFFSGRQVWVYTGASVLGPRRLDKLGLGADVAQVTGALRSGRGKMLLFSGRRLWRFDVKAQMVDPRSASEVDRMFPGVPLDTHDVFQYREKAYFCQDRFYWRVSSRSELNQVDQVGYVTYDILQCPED

MMP 1 % inhibition at 1 micromolar (MMP 1) [%]	MMP 9 % inhibition at 1 micromolar (MMP 9) [%]	MMP 13 % inhibition at 1 micromolar (MMP 13) [%]	TACE % inhibition at 1 micromolar (TACE) [%]	Compound
47.1	36.9	39.5	14.9	Cc1occc1S(=O)(=O)C(C)(Cc1ccc(OCCN2CCCCC2)cc1)C(=O)NO (centres unmarked) [Example 44, 2-Methyl-2-(2-methyl-furan-3-sulfonyl)3-[4-(2-piperidin-1-yl-ethoxy)phenyl]-propionic acid hydroxamide]
66.1	34.7	55.5	46.6	Cc1occc1S(=O)(=O)C(C)(Cc1ccccc1)C(=O)NO (centres unmarked) [Example 43, 2-Methyl-2-(2-methyl-furan-3-sulfonyl)-3-phenyl-propionic acid hydroxamide]
